# Test results reported in ChEMBL document CHEMBL4725460, “Novel Amide-Substituted Heterocyclic Compounds for Treating Inflammatory and Autoimmune Diseases” (ACS Med Chem Lett, 2020).
# Assay: Inhibition of IFNalpha in human whole blood assessed as reduction in IFNalpha-induced STAT phosphorylation by fluorescence assay
# Format: tissue-based
row,Compound,IC50
1,[2H]C([2H])([2H])NC(=O)c1nnc(NC(=O)NCC#C)cc1Nc1cccc(-c2ncn(C)n2)c1OC,0.06 µM
2,[2H]C([2H])([2H])NC(=O)c1nnc(NC(=O)NCC=C)cc1Nc1cccc(-c2ncn(C)n2)c1OC,0.06 µM
3,[2H]C([2H])([2H])NC(=O)c1nnc(NC(=O)NCC)cc1Nc1cccc(-c2ncn(C)n2)c1OC,0.02 µM
4,[2H]C([2H])([2H])NC(=O)c1nnc(NC(=O)OC)cc1Nc1cccc(-c2noc(CN3CCCCS3(=O)=O)n2)c1OC,0.06 µM
5,COC(=O)Nc1cc(Nc2cccc(-c3noc(CN4CCCCS4(=O)=O)n3)c2OC)c(C(N)=O)nn1,0.03 µM
6,COC(=O)Nc1cc(Nc2cccc(-c3ncn(C)n3)c2OC)c(C(N)=O)nn1,0.07 µM
